Test results from PubChem BioAssay (NCI).
Where “and” joins values, the source holds several entries; their conditions need not be identical. Equal entries are not always repeated.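 1) Cells in 96-well plates. 2) Compound, 48 h, 5 concentrations. 3) Linear interpolation between surrounding doses. 4) Unreached endpoint = highest concentration. Abbreviation: GI50, concentration required for 50% inhibition of growth. TGI denotes the concentration required for complete inhibition of growth.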

Assays:
Test in all cases: NCI-60 cell line screen, 48 h
OVCAR-8 ovarian = system: OVCAR-8 ovarian
MOLT-4 leukemia = system: MOLT-4 leukemia
OVCAR-5 ovarian = system: OVCAR-5 ovarian
HL-60(TB) leukemia = system: HL-60(TB) leukemia
LOX IMVI melanoma = system: LOX IMVI melanoma
M14 melanoma = system: M14 melanoma
HS 578T breast = system: HS 578T breast
SNB-75 CNS = system: SNB-75 CNS
HCT-116 colon = system: HCT-116 colon
MDA-MB-231 breast = system: MDA-MB-231 breast

SMILES	GI50 (OVCAR-8 ovarian)	TGI (OVCAR-8 ovarian)	GI50 (MOLT-4 leukemia)	TGI (MOLT-4 leukemia)	GI50 (OVCAR-5 ovarian)	TGI (OVCAR-5 ovarian)	GI50 (HL-60(TB) leukemia)	TGI (HL-60(TB) leukemia)	GI50 (LOX IMVI melanoma)	TGI (LOX IMVI melanoma)	GI50 (M14 melanoma)	TGI (M14 melanoma)	GI50 (HS 578T breast)	TGI (HS 578T breast)	GI50 (SNB-75 CNS)	TGI (SNB-75 CNS)	GI50 (HCT-116 colon)	TGI (HCT-116 colon)	GI50 (MDA-MB-231 breast)	TGI (MDA-MB-231 breast)
Oc1cccc2ccc(N/N=C/c3cc(CN4CCOCC4)c(O)c4ncccc34)nc12	0.0207 µM	2.09 µM	0.053 µM	5.62 µM	0.135 µM	15.4 µM	0.0298 µM	1.49 µM	0.0426 µM	1.41 µM	0.0392 µM	1.58 µM	0.0479 µM	17.2 µM	0.0253 µM	2 µM	0.0223 µM	2.77 µM	0.0441 µM	2.25 µM
O=C(CC1(O)C(=O)N(Cc2ccccc2)c2ccccc21)c1ccc(C(=O)NCC2CCC3(CC2)OOC2(CCCCC2)OO3)cc1 (stereo not given)	0.287 µM	0.817 µM	1.89 µM	4.61 µM	1.61 µM	7.52 µM	0.539 µM	2.09 µM	0.154 µM	0.31 µM	2.48 µM	7.26 µM	2.76 µM	7.81 µM	1.58 µM	3.44 µM	2.29 µM	6.13 µM	1.15 µM	2.95 µM
CC1(C)CC(=O)C2=C(C1)OC(N)=C(c1nc(-c3ccccc3)cs1)C2c1ccc(Br)cc1 (stereo not given)	116 µg/mL	> 150 µg/mL	53.5 µg/mL	> 150 µg/mL	> 150 µg/mL	> 150 µg/mL	69.2 µg/mL	> 150 µg/mL	124 µg/mL	> 150 µg/mL	103 µg/mL	> 150 µg/mL	38.5 µg/mL	> 150 µg/mL	0.547 µg/mL	46.9 µg/mL	55.7 µg/mL	> 150 µg/mL	59.1 µg/mL	> 150 µg/mL
Cc1ccc(-c2nc([P+](c3ccccc3)(c3ccccc3)c3ccccc3)c(S(=O)(=O)c3ccc(C)cc3)o2)cc1	1.32 µM	4.17 µM	1.06 µM	4.63 µM	1.58 µM	3.18 µM	1.67 µM	4.38 µM	0.328 µM	1.3 µM	1.51 µM	3.27 µM	1.7 µM	5.31 µM	1.21 µM	4.41 µM	1.37 µM	2.75 µM	1.52 µM	2.93 µM
Cc1cccc2c3c(sc12)C(c1ccc(Cl)cc1)C(C#N)=C(N)O3 (stereo not given)	0.471 µM	6.89 µM	0.497 µM	13.7 µM	0.541 µM	11.5 µM	0.3 µM	1.21 µM	0.663 µM	3.92 µM	0.326 µM	12.8 µM	0.274 µM	1.48 µM	0.214 µM	0.71 µM	0.389 µM	4.95 µM	0.679 µM	7.74 µM
O=C(O)CCC(=O)c1ccc2sc3ccccc3c2c1		> 100 µM		> 100 µM		> 100 µM		> 100 µM		> 100 µM		> 100 µM		> 100 µM		> 100 µM		> 100 µM		> 100 µM
Cc1cc(C)nc(SC2=C(Nc3cc(Cl)ccc3O)C(=O)N(Cc3ccccc3)C2=O)n1	27 µM	110 µM	6.14 µM	31.4 µM	> 160 µM	> 160 µM	33.3 µM	70 µM	27.2 µM	89.4 µM	48.4 µM	> 160 µM	28.1 µM	87.5 µM	21.8 µM	104 µM	31.4 µM	> 160 µM	16.8 µM	48 µM
O=C1OC(C(O)CO)C(O)=C1O (stereo not given)	1550 µM and 1510 µM	3050 µM and 3190 µM	2130 µM and 1550 µM	5040 µM and > 4890 µM	1790 µM and 1730 µM	3400 µM and 3310 µM	5590 µM and 5090 µM	> 10000 µM	340 µM and 426 µM	1000 µM and 1460 µM	1890 µM and 2290 µM	3570 µM and 4760 µM	2990 µM and > 10000 µM	7960 µM and > 10000 µM	2460 µM and > 4760 µM	4050 µM and > 6140 µM	250 µM and 641 µM	534 µM and 2110 µM	1460 µM and 1440 µM	2820 µM and 2960 µM
CCC1(O)C(=O)OCc2c1cc1n(c2=O)Cc2cc3c(NC(=O)CN)cccc3nc2-1 (stereo not given)	0.557 µM	30.2 µM	0.0438 µM	1.13 µM	3.27 µM	63.9 µM	0.129 µM	1.64 µM	0.146 µM	4.08 µM	0.532 µM	8.73 µM	28.9 µM	> 100 µM	0.346 µM	5.14 µM	1.01 µM	> 62.5 µM	58.1 µM	> 100 µM
COC(=O)c1cc2c(cc1Cl)SC1=NN(C)C(N(C)C)N1S2(=O)=O (stereo not given)	> 100 µM	> 100 µM	62.8 µM	> 100 µM	> 100 µM	> 100 µM	> 100 µM	> 100 µM	> 100 µM	> 100 µM	> 100 µM	> 100 µM	> 100 µM	> 100 µM	> 100 µM	> 100 µM	> 100 µM	> 100 µM	> 100 µM	> 100 µM
C=CCN1CC(=O)N2[C@@H](Cc3ccc(O)cc3F)C(=O)N(Cc3cccc(N4CC(N5CCN(CC)CC5)C4)n3)C[C@@H]2N1C(=O)NCc1ccccc1	0.0295 µM		0.0276 µM		0.0354 µM	> 100 µM	0.226 µM	26.5 µM	0.0339 µM	0.584 µM	0.0445 µM	19.6 µM	0.0279 µM	0.15 µM	0.017 µM	0.131 µM	0.0325 µM	> 100 µM	0.0216 µM	0.139 µM
COC(=O)CCCCC(=O)c1c(C)[nH]c(/C=C2\N=C(c3ccc[nH]3)C=C2OC)c1C	0.451 µM	1.76 µM	0.103 µM	1.74 µM	0.87 µM	2.38 µM	0.273 µM	1.03 µM	0.0416 µM	0.135 µM	0.289 µM	0.952 µM	1.02 µM	3.05 µM	0.851 µM	2.24 µM	0.109 µM		0.269 µM	1.65 µM
OCCNC1c2cc(Cl)ccc2-c2c(Cl)cc(Cl)cc21 (stereo not given)		> 100 µM		47.6 µM		> 100 µM		51.4 µM		> 100 µM		> 100 µM		> 100 µM		> 100 µM		> 100 µM		98.9 µM
C[N+](C)(C)CC1CCCC1=O (stereo not given)		4.99 µM		4.4 µM		14.8 µM		> 20.2 µM		2.33 µM		2.61 µM		16.6 µM		7.98 µM		3.74 µM		2.77 µM
COC(=O)c1cncc(/C=C/c2c(C)cc(O)cc2C)c1	17.9 µM	> 25 µM	4.19 µM	> 20.1 µM	> 24.1 µM	> 25 µM	2.25 µM	5.96 µM	7.41 µM	> 18 µM	8.69 µM	24.6 µM	6.91 µM	> 25 µM	> 9.93 µM	> 18.8 µM	14.2 µM	> 25 µM	7.19 µM	> 23 µM
Oc1ccc(C(c2ccc(O)cc2)c2ccc(Br)cn2)cc1	0.276 µM	0.786 µM	21.3 µM	76.4 µM	13.7 µM	> 71 µM	10.6 µM	44 µM	0.282 µM	0.895 µM	14.5 µM	47.4 µM	0.242 µM	0.593 µM	0.192 µM	0.635 µM	0.517 µM	14.4 µM	13.4 µM	49.2 µM
O=[N+]([O-])c1ccc(N2CCOCC2)c2c1no[n+]2[O-]	1.1 µM	2.62 µM	0.85 µM	3.43 µM	3.28 µM	13.4 µM	0.632 µM	2.52 µM	0.675 µM	2.13 µM	1.11 µM	3.81 µM	1.15 µM	4.17 µM	0.822 µM	5.56 µM	0.965 µM	2.24 µM	2.7 µM	15.6 µM
O=C(/C=C/c1cccc(O)c1)c1cccc(-n2cc(-c3ccccc3)[nH]c2=O)c1	2.86 µM	10.5 µM	3.38 µM	> 27.3 µM	3.86 µM	11.9 µM	3.27 µM	17.5 µM	1.81 µM	3.44 µM	2.89 µM		5.7 µM	44.6 µM	5.7 µM	18.2 µM	2.22 µM		3.59 µM	12.6 µM
C#CCNC(=O)[C@H](CC)[C@H]1CC[C@H](C)[C@H]([C@@H](C)[C@H](O)[C@H](C)C(=O)[C@H](CC)C2O[C@]3(C=CC(=O)[C@]4(CC[C@@](C)([C@H]5CC[C@](O)(CC)[C@H](C)O5)O4)O3)[C@H](C)C[C@@H]2C)O1 (stereo not given in full)	2.96 µM	35.8 µM	2.44 µM	8.76 µM	2.62 µM	8.16 µM	2.28 µM	5.45 µM	2.06 µM	4.83 µM	1.86 µM	4.57 µM	2.06 µM	6.71 µM	1.39 µM	3.36 µM	2.43 µM	7.66 µM	1.92 µM	5.14 µM
N#CCCN1C/C(=C/c2ccc(Cl)cc2)C(=O)/C(=C/c2ccc(Cl)cc2)C1	0.543 µM	11.6 µM	1.94 µM	8.39 µM	2.07 µM	4.7 µM	2.12 µM	7.38 µM	0.303 µM	1.13 µM	1.8 µM	3.99 µM	2.9 µM	12.8 µM	2.19 µM	6.8 µM	0.25 µM	0.59 µM	2.01 µM	7.44 µM
Cc1cc(N(CCCNc2ccnc3cc(Cl)ccc23)Cc2ccco2)nc(N2CCN(C)CC2)n1	3.87 µM	16.8 µM	2.74 µM	14 µM	6.08 µM	21.8 µM	2.06 µM	4.37 µM	1.69 µM	3.53 µM	1.85 µM	3.44 µM	2.43 µM	7.85 µM	1.29 µM	5.56 µM	2.48 µM	10.7 µM	2.63 µM	8.72 µM
CC(C)(O)CNc1nc(Nc2ccnc(C(F)(F)F)c2)nc(-c2cccc(C(F)(F)F)n2)n1	26.3 µM	84.8 µM	13.7 µM	41.8 µM	22.5 µM	63 µM	21.1 µM	58.2 µM	17.3 µM	32.6 µM	16.1 µM	34.6 µM	27.8 µM	75.9 µM	15.9 µM	42.7 µM	17.6 µM	44.5 µM	19.1 µM	45.6 µM
